Source: patent publication US20140228214A1, “COMPOSITIONS COMPRISING A STREPTOMYCES-BASED BIOLOGICAL CONTROL AGENT AND A FUNGICIDE” (BAYER CROPSCIENCE LP, priority 2013, published 2014)
Like-named read-outs stand apart in the source and are kept apart here.

Experiments:
Pyrenophora teres = assay: Pyrenophora teres-test (barley)/preventive, evaluated 8 days after the inoculation; type: in vivo
Puccinia triticina = assay: Puccinia triticina-test (wheat)/preventive, evaluated 8 days after the inoculation; type: in vivo
Phytophthora infestans = type: in vivo
Alternaria solani = assay: Alternaria test (tomatoes)/preventive, evaluated 3 days after the inoculation; type: in vivo
Venturia inaequalis = assay: Venturia test (apples)/preventive, evaluated 10 days after the inoculation
Experimental: After the spray coating has dried on, the plants are inoculated with an aqueous conidia suspension of the causal agent of apple scab (Venturia inaequalis) and then remain for 1 day in an incubation cabinet at approximately 20° C. and a relative atmospheric humidity of 100%. The plants are then placed in a greenhouse at approximately 21° C. and a relative atmospheric humidity of approximately 90%.
The test is evaluated 10 days after the inoculation.

[1] = system: Blumeria graminis fsp. hordei; assay: Blumeria test (barley)/preventive, evaluated 7 days after the inoculation; type: in vivo
Septoria tritici = assay: Septoria tritici-test (wheat)/preventive, evaluated 21 days after the inoculation; type: in vivo
Sphaerotheca fuliginea = assay: Sphaerotheca test (cucumbers)/preventive, evaluated 7 days after the inoculation; type: in vivo
Botrytis cinerea = assay: Botrytis test (beans)/preventive, size of the lesions 2 days after the inoculation; conditions: Table 17
Experimental: After the spray coating has dried on, 2 small pieces of agar covered with growth of Botrytis cinerea are placed on each leaf. The inoculated plants are placed in a darkened chamber at 20° C. and a relative atmospheric humidity of 100%.
2 days after the inoculation, the size of the lesions on the leaves is evaluated.

In the case of `Cn1cc(C(=O)Nc2ccccc2-c2cc(F)c(F)c(F)c2)c(C(F)F)n1` [F72, fluxapyroxad], the “Efficacy in % found” value (Pyrenophora teres; Table 25, 15.625 ppm a.i.) was 80%, the “Efficacy in % found” value (Pyrenophora teres; Table 25, 31.25 ppm a.i.) was 90% and the “Efficacy in % found” value (Puccinia triticina; Table 22, 15.625 ppm a.i.) was 22%. For the same compound, the “Efficacy in % found” value (Puccinia triticina; Table 22, 31.25 ppm a.i.) was 22%, the “Efficacy in % found” value (Phytophthora infestans; Table 19, 100 ppm a.i.) was 0% and the “Efficacy in % found” value (Alternaria solani; Table 12, 0.5 ppm a.i.) was 45%. The “Efficacy in % found” value (Venturia inaequalis; Table 31, 0.25 ppm a.i.) was 0%, the “Efficacy in % found” value ([1]; Table 15, 31.25 ppm a.i.) was 0% and the “Efficacy in % found” value (Septoria tritici; Table 26, 31.25 ppm a.i.) was 13%.

With `COCC(=O)N(c1c(C)cccc1C)[C@H](C)C(=O)OC` [F242, metalaxyl-M (mefenoxam)] the “Efficacy in % found” value (Sphaerotheca fuliginea; Table 28, 100 ppm a.i.) was 13% and the “Efficacy in % found” value (Venturia inaequalis; Table 32, 50 ppm a.i.) was 0%.

For mancozeb [F174], the “Efficacy in % found” value (Phytophthora infestans; Table 21, 20 ppm a.i.) was 0%, the “Efficacy in % found” value (Sphaerotheca fuliginea; Table 29, 20 ppm a.i.) was 0% and the “Efficacy in % found” value (Venturia inaequalis; Table 33, 10 ppm a.i.) was 0%.

chlorothalonil [F155] was tested, and the “Efficacy in % found” value (Pyrenophora teres; Table 24, 250 ppm a.i.) was 50%, the “Efficacy in % found” value (Phytophthora infestans; Table 21, 20 ppm a.i.) was 0% and the “Efficacy in % found” value (Venturia inaequalis; Table 33, 10 ppm a.i.) was 4%. The “Efficacy in % found” value (Septoria tritici; Table 27, 125 ppm a.i.) was 57%.

For `N#Cc1ccccc1NC(=O)c1snc(Cl)c1Cl` [F187, isotianil], the “Efficacy in % found” value (Sphaerotheca fuliginea; Table 30, 100 ppm a.i.) was 20%, the “Efficacy in % found” value (Alternaria solani; Table 14, 50 ppm a.i.) was 18% and the “Efficacy in % found” value (Botrytis cinerea; 125 ppm a.i.) was 40%. The “Efficacy in % found” value (Venturia inaequalis; Table 31, 50 ppm a.i.) was 0%, the “Efficacy in % found” value (Septoria tritici; Table 27, 250 ppm a.i.) was 29% and the “Efficacy in % found” value (Septoria tritici; Table 27, 500 ppm a.i.) was 29%.

fosetyl-aluminium [F281] was tested, and the “Efficacy in % found” value (Phytophthora infestans; Table 20, 50 ppm a.i.) was 55%, the “Efficacy in % found” value (Sphaerotheca fuliginea; Table 28, 100 ppm a.i.) was 13% and the “Efficacy in % found” value (Alternaria solani; Table 13, 50 ppm a.i.) was 15%. For the same compound, the “Efficacy in % found” value (Venturia inaequalis; Table 32, 50 ppm a.i.) was 0%.

In the case of fenamidone [F114], the “Efficacy in % found” value (Phytophthora infestans; Table 20, 1 ppm a.i.) was 41%, the “Efficacy in % found” value (Sphaerotheca fuliginea; Table 28, 100 ppm a.i.) was 21% and the “Efficacy in % found” value (Alternaria solani; Table 13, 50 ppm a.i.) was 62%. The “Efficacy in % found” value (Venturia inaequalis; Table 32, 50 ppm a.i.) was 0%.

For tebuconazole [F47], the “Efficacy in % found” value (Puccinia triticina; Table 23, 31.25 ppm a.i.) was 30%, the “Efficacy in % found” value (Puccinia triticina; Table 23, 62.5 ppm a.i.) was 60% and the “Efficacy in % found” value (Phytophthora infestans; Table 19, 100 ppm a.i.) was 15%. For the same compound, the “Efficacy in % found” value (Alternaria solani; Table 12, 2 ppm a.i.) was 35%, the “Efficacy in % found” value (Venturia inaequalis; Table 31, 1 ppm a.i.) was 0% and the “Efficacy in % found” value ([1]; Table 16, 31.25 ppm a.i.) was 78%. The “Efficacy in % found” value (Septoria tritici; Table 27, 125 ppm a.i.) was 57%.

`O=C(NCc1ncc(C(F)(F)F)cc1Cl)c1c(Cl)cccc1Cl` [F143, fluopicolide] was tested, and the “Efficacy in % found” value (Phytophthora infestans; Table 20, 5 ppm a.i.) was 21% and the “Efficacy in % found” value (Venturia inaequalis; Table 32, 50 ppm a.i.) was 0%.

With difenoconazole [F7] the “Efficacy in % found” value (Puccinia triticina; Table 23, 31.25 ppm a.i.) was 30%, the “Efficacy in % found” value (Puccinia triticina; Table 23, 62.5 ppm a.i.) was 60% and the “Efficacy in % found” value (Phytophthora infestans; Table 19, 100 ppm a.i.) was 0%. The “Efficacy in % found” value (Sphaerotheca fuliginea; Table 29, 1 ppm a.i.) was 0%, the “Efficacy in % found” value (Alternaria solani; Table 12, 2 ppm a.i.) was 30% and the “Efficacy in % found” value (Venturia inaequalis; Table 31, 1 ppm a.i.) was 38%. For the same compound, the “Efficacy in % found” value ([1]; Table 16, 62.5 ppm a.i.) was 44% and the “Efficacy in % found” value ([1]; Table 16, 125 ppm a.i.) was 67%.

With prothioconazole [F41] the “Efficacy in % found” value (Phytophthora infestans; Table 19, 100 ppm a.i.) was 45%, the “Efficacy in % found” value (Sphaerotheca fuliginea; Table 29, 1 ppm a.i.) was 43% and the “Efficacy in % found” value (Alternaria solani; Table 12, 2 ppm a.i.) was 0%. The “Efficacy in % found” value (Venturia inaequalis; Table 31, 1 ppm a.i.) was 0%.

With spiroxamine [F46] the “Efficacy in % found” value (Sphaerotheca fuliginea; Table 30, 100 ppm a.i.) was 30%, the “Efficacy in % found” value (Alternaria solani; Table 14, 50 ppm a.i.) was 46% and the “Efficacy in % found” value (Botrytis cinerea; 100 ppm a.i.) was 14%. The “Efficacy in % found” value (Venturia inaequalis; Table 31, 50 ppm a.i.) was 0% and the “Efficacy in % found” value ([1]; Table 16, 125 ppm a.i.) was 11%.

fenhexamid [F16] was tested, and the “Efficacy in % found” value (Phytophthora infestans; TABLE 17 (Phytophthora), 100 ppm a.i.) was 0%, the “Efficacy in % found” value (Sphaerotheca fuliginea; Table 30, 100 ppm a.i.) was 0% and the “Efficacy in % found” value (Alternaria solani; Table 14, 50 ppm a.i.) was 50%. The “Efficacy in % found” value (Venturia inaequalis; Table 31, 25 ppm a.i.) was 0%.

For fludioxonil [F248], the “Efficacy in % found” value (Sphaerotheca fuliginea; Table 30, 100 ppm a.i.) was 30%, the “Efficacy in % found” value (Botrytis cinerea; 2.5 ppm a.i.) was 26% and the “Efficacy in % found” value (Venturia inaequalis; Table 31, 50 ppm a.i.) was 0%.

phosphorous acid and its salts [F298] was tested, and the “Efficacy in % found” value (Phytophthora infestans; Table 20, 500 ppm a.i.) was 76% and the “Efficacy in % found” value (Venturia inaequalis; Table 32, 50 ppm a.i.) was 0%.

In the case of `CO/C=C(/C(=O)OC)c1ccccc1Oc1cc(Oc2ccccc2C#N)ncn1` [F107, azoxystrobin], the “Efficacy in % found” value (Pyrenophora teres; Table 25, 15.625 ppm a.i.) was 60%, the “Efficacy in % found” value (Pyrenophora teres; Table 25, 31.25 ppm a.i.) was 90% and the “Efficacy in % found” value (Puccinia triticina; Table 22, 7.8125 ppm a.i.) was 67%. For the same compound, the “Efficacy in % found” value (Sphaerotheca fuliginea; Table 28, 0.5 ppm a.i.) was 37%, the “Efficacy in % found” value (Alternaria solani; Table 13, 2 ppm a.i.) was 41% and the “Efficacy in % found” value (Venturia inaequalis; Table 32, 0.5 ppm a.i.) was 84%. For the same compound, the “Efficacy in % found” value ([1]; Table 15, 31.25 ppm a.i.) was 10%, the “Efficacy in % found” value (Septoria tritici; Table 26, 15.625 ppm a.i.) was 13% and the “Efficacy in % found” value (Septoria tritici; Table 26, 31.25 ppm a.i.) was 50%.

With flutolanil [F71] the “Efficacy in % found” value (Sphaerotheca fuliginea; Table 30, 100 ppm a.i.) was 20%, the “Efficacy in % found” value (Botrytis cinerea; 250 ppm a.i.) was 30% and the “Efficacy in % found” value (Venturia inaequalis; Table 31, 50 ppm a.i.) was 0%.

With `C#CCOc1ccc(CCNC(=O)C(OCC#C)c2ccc(Cl)cc2)cc1OC` (stereo not shown) [F206, mandipropamid] the “Efficacy in % found” value (Phytophthora infestans; Table 20, 0.25 ppm a.i.) was 47% and the “Efficacy in % found” value (Sphaerotheca fuliginea; Table 28, 100 ppm a.i.) was 13%.

`Cc1nn(C)c(F)c1C(=O)Nc1ccccc1C(C)CC(C)C` (stereo not shown) [F84, penflufen] was tested, and the “Efficacy in % found” value (Pyrenophora teres; Table 25, 62.5 ppm a.i.) was 70%, the “Efficacy in % found” value (Pyrenophora teres; Table 25, 125 ppm a.i.) was 60% and the “Efficacy in % found” value (Puccinia triticina; Table 22, 31.25 ppm a.i.) was 67%. The “Efficacy in % found” value (Phytophthora infestans; Table 19, 100 ppm a.i.) was 8%, the “Efficacy in % found” value (Sphaerotheca fuliginea; Table 29, 0.5 ppm a.i.) was 0% and the “Efficacy in % found” value (Venturia inaequalis; Table 31, 0.5 ppm a.i.) was 0%.

propamocarb hydrochloride [F220] was tested, and the “Efficacy in % found” value (Phytophthora infestans; TABLE 17 (Phytophthora), 500 ppm a.i.) was 7%, the “Efficacy in % found” value (Sphaerotheca fuliginea; Table 30, 500 ppm a.i.) was 10% and the “Efficacy in % found” value (Alternaria solani; Table 14, 250 ppm a.i.) was 12%. The “Efficacy in % found” value (Venturia inaequalis; Table 31, 250 ppm a.i.) was 0%.

propineb [F180] was tested, and the “Efficacy in % found” value (Phytophthora infestans; Table 21, 20 ppm a.i.) was 8%, the “Efficacy in % found” value (Sphaerotheca fuliginea; Table 29, 20 ppm a.i.) was 0% and the “Efficacy in % found” value (Venturia inaequalis; Table 33, 10 ppm a.i.) was 81%.
